The text below walks through data of patent US20100029604A1, “ANTIBACTERIAL COMBINATION AND ITS USE” (priority 2007, published 2010).

Where two headings read alike, the source gives them in different places.

One experiment has as its system Escherichia coli TEM-30. In words: MIC, characterised β-lactamase producing strain (Example 5, Tables 5-7). In kind it is cell-based. Particulars: Table 6, LK-157 at constant 4 μg/mL in combination.
A further experiment has as its system K. pneumoniae SHV. In words: Synergy MIC, inhibitor at 4 μg/mL (Example 3). It counts as cell-based. Particulars: β-lactamase SHV, inhibitor constant 4 μg/mL. The procedure:
(§1) Stock solutions of the test compounds and control antibiotics were prepared in distilled water according to the NCCLS guidelines [Methods for dilution antimicrobial tests for bacteria that grow aerobically. NCCLS document M7-A5; 2000; vol. 19. National Committee for Clinical Laboratory Standards, Villanova, Pa.]. All drug weights were corrected for salt forms and refer to the pure drug substance.
(§2) All tested strains and Clinical isolates were either purchased from the American Type Culture Collection (ATCC), or from the in-house company culture collection.
(§3) Stock cultures were prepared from broth cultures grown at 35° C. for 18-22 h without agitation and subsequent addition of 5% DMSO (v/v, final concentration) as cryoprotectant and stored frozen in liquid nitrogen. Mueller-Hinton II broth (MHBII) (BBL Cockeysville, Md.) was used for the testing procedure.
(§4) The in vitro activities of the antibiotics were determined by the broth microdilution method and agar dilution technique as recommended by CLSI guidelines. The MIC experiments were performed in duplicate in 96-well microtiter plates using MHB. Serial twofold dilutions of each antibiotic either alone or in combination with a constant amount (4 μg/mL) of a β-lactamase inhibitor were prepared in MHBII broth. A sterile pipette tip was used to mix the contents of each well (one tip was used going from the low to the high concentration in the same column). The bacterial suspension with final inoculum 10^5 CFU/mL was transferred to the test medium containing the antibacterial substances by a multipoint inoculator (Dynatech, Chantilly, Va., USA). The plates were then incubated at 35° C. for 24 h.
(§5) Representative compound of Formula (I) was evaluated against the serine-based Class A β-lactamases including TEM-type, SHV-type extended spectrum β-lactamases (ESBL) and various non-ESBL enzymes of enterobacteriaceae as well as BRO-type enzymes of Moraxella catarrhalis and penicillinases of Staphylococcus aureus.

The test system of a further experiment is C. freundii SHV-5. In words: Synergy MIC, inhibitor at 4 μg/mL (Example 3). In kind it is cell-based. The conditions noted are these: β-lactamase SHV-5 (Table 3 r10), inhibitor constant 4 μg/mL. The procedure:
as §1, §2, §3, §4, §5

The next experiment relates to E. coli ESBL. In words: Synergy MIC, inhibitor at 4 μg/mL (Example 3). In kind it is cell-based. Particulars: inhibitor constant 4 μg/mL. The procedure:
as §1, §2, §3, §4, §5

The next experiment deals with E. coli SHV-3. Description: Synergy MIC, inhibitor at 4 μg/mL (Example 3). In kind it is cell-based. The conditions noted are these: β-lactamase SHV-3 (Table 3 r9), inhibitor constant 4 μg/mL. The procedure: as §1, §2, §3, §4, §5
The next experiment concerns C. freundii ESBL. Description: Synergy MIC, inhibitor at 4 μg/mL (Example 3). In kind it is cell-based. Particulars: ESBL (Table 3 r25), inhibitor constant 4 μg/mL. On the procedure: as §1, §2, §3, §4, §5
The subject of the next experiment is E. cloacae SHV-12. In words: Synergy MIC, inhibitor at 4 μg/mL (Example 3). In kind it is cell-based. The conditions noted are these: β-lactamase SHV-12 (Table 3 r11), inhibitor constant 4 μg/mL. The procedure:
as §1, §2, §3, §4, §5

For a further experiment, the system named is K. oxytoca ESBL. In words: Synergy MIC, inhibitor at 4 μg/mL (Example 3). The conditions noted are these: ESBL (Table 3 r26), inhibitor constant 4 μg/mL. It counts as cell-based. The procedure:
as §1, §2, §3, §4, §5

The test system of the next experiment is S. aureus PC. In words: Synergy MIC, inhibitor at 4 μg/mL (Example 3). It counts as cell-based, Staphylococcus aureus. The conditions noted are these: S. aureus, β-lactamase PC, inhibitor constant 4 μg/mL. On the procedure: as §1, §2, §3, §4, §5
A further experiment concerns M. catarrhalis BRO-2. Description: Synergy MIC, inhibitor at 4 μg/mL (Example 3). In kind it is cell-based, Moraxella catarrhalis. Particulars: β-lactamase BRO-2 (Table 3 r18), inhibitor constant 4 μg/mL. The procedure: as §1, §2, §3, §4, §5
Another experiment concerns M. catarrhalis BRO-1. Description: Synergy MIC, inhibitor at 4 μg/mL (Example 3). It counts as cell-based, Moraxella catarrhalis. The conditions noted are these: M. catarrhalis, β-lactamase BRO-1 (Table 3 r17); inhibitor constant 4 μg/mL. On the procedure: as §1, §2, §3, §4, §5
In the next experiment the test system is E. coli TEM-3. It counts as cell-based. Particulars: β-lactamase TEM-3 (Table 3 r16), inhibitor constant 4 μg/mL. The procedure: as §1, §2, §3, §4, §5
In a further experiment the test system is E. coli TEM-1. In kind it is cell-based. The conditions noted are these: inhibitor constant 4 μg/mL. The procedure:
as §1, §2, §3, §4, §5

By MIC is commonly meant the lowest concentration that inhibits growth of the organism. For the molecule `CO/N=C(\C(=O)N[C@@H]1C(=O)N2C(C(=O)O)=C(COC(C)=O)CS[C@H]12)c1csc(N)n1` [cefotaxime], the MIC with Escherichia coli TEM-30 is 0.031 µg/mL.
Turning to `CC(C)(O/N=C(\C(=O)N[C@@H]1C(=O)N2C(C(=O)[O-])=C(C[n+]3ccccc3)CS[C@H]12)c1csc(N)n1)C(=O)O` [ceftazidime], the MIC in the experiment on K. pneumoniae SHV (first listed (Table 3 r12)) was above 25.6 µg/mL; in the experiment with K. pneumoniae SHV (second listed (Table 3 r13)), 12.8 µg/mL; in the experiment on C. freundii SHV-5, above 25.6 µg/mL; in the experiment with E. coli ESBL (first listed (Table 3 r21)) it was 1.6 µg/mL; with E. coli ESBL (fourth listed (Table 3 r24)), above 25.6 µg/mL; in the experiment with E. coli ESBL (second listed (Table 3 r22)), 0.4 µg/mL. The MIC in the experiment on E. coli ESBL (third listed (Table 3 r23)) is 0.2 µg/mL; in the experiment with E. coli SHV-3 it was 1.6 µg/mL; in the experiment on C. freundii ESBL, above 25.6 µg/mL; in the experiment on E. cloacae SHV-12, above 25.6 µg/mL; in the experiment on K. oxytoca ESBL, 0.4 µg/mL; in the experiment on S. aureus PC (first listed (Table 3 r19)), 12.8 µg/mL. Also, the MIC is 25.6 µg/mL in the experiment with S. aureus PC (second listed (Table 3 r20)); 0.05 µg/mL in the experiment on M. catarrhalis BRO-2; 0.2 µg/mL in the experiment with M. catarrhalis BRO-1; above 25.6 µg/mL with E. coli TEM-3; 0.2 µg/mL in the experiment with E. coli TEM-1 (β-lactamase TEM-1, first listed (Table 3 r14)); 3.2 µg/mL in the experiment on E. coli TEM-1 (β-lactamase TEM-1, second listed (Table 3 r15)).
